Converted amounts (≈) assume the structure as drawn. Like-named read-outs stand apart in the source and are kept apart here.
Tests used:
Format in all cases: cell-based
Candida albicans [1] = assay: In vitro susceptibility, fluconazole and CHD-FA, preliminary experiment (5 clinical isolates); conditions: read-out: Minimum Inhibitory Concentrations of Fluconazole
Protocol: (§1) Each culture was grown on Sabouraud agar at 37° C. for 48 h to ensure purity.
Clinical Microbiology and Infection 9:1-VIII.)
a) All yeasts were cultured in ambient air at 35-37° C. on recovery medium (Sabouraud dextrose agar) for 18-24 h before testing.
b) The inoculum was prepared by picking five distinct colonies from 18 to 24 h cultures and suspending them in 5 mL of sterile distilled water.
c) The inoculum was completely suspended by vigorous shaking on a vortex mixer for 15 s. The cell density was adjusted to the density of a 0.5 McFarland standard by adding sterile distilled water and measuring absorbance in a spectrophotometer at a wavelength of 530 nm. This gave a yeast suspension of 1-5×10^6 cfu/mL. A working suspension was prepared by a further dilution of 1 in 10 further in 4×RPMI to give […] (The RPMI medium used in the plates was prepared at 4×the final strength to allow for a 75% dilution once the inoculum and diluted CHD-FA was added).
(§2) Sterile plastic, disposable, microtitration plates with 96 flat-bottom wells were used.
(§3) a) Column 1 of the microtitration tray was filled with 100 μL of sterile water containing four times the final drug concentration (512 mg/L fluconazole).
(§4) b) Columns 2-12 were filled with 50 μL of distilled water
(§5) c) 50 μL amounts were taken from wells in column 1 and diluted two-fold by transferring them to column 2 with a multichannel pipette (±2% coefficient of variation). 50 μL samples were then removed from column 2 and transferred to column 3, and so on through to column 10. The last 50 μL of diluted drug is then discarded. Thus, each well in columns 1-10 will contain 50 μL of water containing four times the final antifungal drug concentrations.
Stock solutions of CHD-FA were produced containing 4%, 2%, 1%, 0.5% and 0.25% of the native compound. 100 μL of the diluted CHD-FA was added to microtitration trays in so that row A contains a final dilution of 2% row B, 1%, row C 0.5%, row D 0.25% row E 0.125% and row F diluent only.
50 μL of the diluted Candida albicans suspension in 4×RPMI was added to all cells. This produces a well containing 200 μL final volume (made up of 50 μL diluted fluconazole, 100 μL diluted CHD-FA or diluent, 50 μL of 4×RPMI containing Candida albicans)
(§6) All plates were incubated at 37° C. in air in a darkened incubator.
(§7) Plates were read visually with the endpoint taken as the lowest concentration of drug that inhibited growth by 50% of that of the drug free control.
The pH of CHD-FA was adjusted to pH7.0 using 10M NaOH solution (the ideal pH for fluconazole activity). […] Susceptibility assays were repeated as above.

Candida albicans [2] = assay: In vitro susceptibility, fluconazole and CHD-FA, main experiment
Protocol: as §1, §2, §3, §4, §5
(§8) Stock solutions of CHD-FA were produced containing 4% and 2% (also 1% and 0.5% for Candida parapsilosis and Candida krusei). 100 μL of the diluted CHD-FA was added to microtitration trays in so that rows contain final dilutions of: • For Candida albicans and tropicalis: 1st row of pair 0.5% CHD-FA, 2nd row of pair solvent only • For Candida glabrata: 1st row of triplet 1% CHD-FA, 2nd row of triplet 0.5% CHD-FA, 3rd row of triplet solvent only • For Candida parapsilosis and Candida krusei rows included 2%, 1%, 0.5%, 0.25 and 0.125% CHD-FA and a row of solvent only.
(§9) All the above concentrations were mixed with fixed concentrations of fluconazole at 128, 32, 8, 2, 0.5 mg/L and solvent for synergy/antagonism assessment.
(§10) 50 μL of the diluted Candida spp suspension in 4×RPMI was added to all wells. This produces a well containing 200 μL final volume (made up of 50 μL diluted fluconazole, 100 μL diluted CHD-FA or diluent, 50 μL of 4×RPMI containing Candida)
as §6, §7

Candida glabrata = assay: as above
Protocol: as §1, §2, §3, §4, §5, §8, §9, §10, §6, §7

Candida tropicalis = assay: as above
Protocol: as §1, §2, §3, §4, §5, §8, §9, §10, §6, §7

Candida krusei = assay: as above
Protocol: as §2, §3, §4, §5, §8, §9, §10, §6, §7

Candida parapsilosis = assay: as above; conditions: Lodderomyces parapsilosis, read-out: Fluconazole MIC (mg/L) alone
Protocol: as §2, §3, §4, §5, §8, §9, §10, §6, §7

SMILES: OC(Cn1cncn1)(Cn1cncn1)c1ccc(F)cc1F [Fluconazole, fluconazole]
- MIC (Candida albicans [1]; Candida Strain 1, Solvent (no CHD-FA)): 128 µg/mL (≈ 418 µM)
- MIC (Candida albicans [1]; Candida Strain 2, Solvent (no CHD-FA)): 16 µg/mL (≈ 52.2 µM)
- MIC (Candida albicans [1]; Candida Strain 3, Solvent (no CHD-FA)): 16 µg/mL (≈ 52.2 µM)
- MIC (Candida albicans [1]; Candida Strain 4, Solvent (no CHD-FA)): 32 µg/mL (≈ 104 µM)
- MIC (Candida albicans [1]; Candida Strain 5, Solvent (no CHD-FA)): 16 µg/mL (≈ 52.2 µM)
- MIC (Candida albicans [2]; C. albicans isolate 1, read-out: Fluconazole MIC (mg/L) alone): 128 mg/L
- MIC (Candida albicans [2]; C. albicans isolate 2, read-out: Fluconazole MIC (mg/L) alone): 8 mg/L
- MIC (Candida albicans [2]; C. albicans isolate 3, read-out: Fluconazole MIC (mg/L) alone): 16 mg/L
- MIC (Candida albicans [2]; C. albicans isolate 4, read-out: Fluconazole MIC (mg/L) alone): 4 mg/L
- MIC (Candida albicans [2]; C. albicans isolate 5, read-out: Fluconazole MIC (mg/L) alone): 128 mg/L
- MIC (Candida albicans [2]; C. albicans isolate 6, read-out: Fluconazole MIC (mg/L) alone): > 128 mg/L
- MIC (Candida albicans [2]; C. albicans isolate 7, read-out: Fluconazole MIC (mg/L) alone): 128 mg/L
- MIC (Candida albicans [2]; C. albicans isolate 8, read-out: Fluconazole MIC (mg/L) alone): 128 mg/L
- MIC (Candida albicans [2]; C. albicans isolate 9, read-out: Fluconazole MIC (mg/L) alone): 64 mg/L
- MIC (Candida albicans [2]; C. albicans isolate 10, read-out: Fluconazole MIC (mg/L) alone): 128 mg/L
- MIC (Candida albicans [2]; C. albicans isolate 11, read-out: Fluconazole MIC (mg/L) alone): 0.5 mg/L
- MIC (Candida albicans [2]; C. albicans isolate 12, read-out: Fluconazole MIC (mg/L) alone): 64 mg/L
- MIC (Candida albicans [2]; C. albicans isolate 13, read-out: Fluconazole MIC (mg/L) alone): 0.5 mg/L
- MIC (Candida albicans [2]; C. albicans isolate 14, read-out: Fluconazole MIC (mg/L) alone): 32 mg/L
- MIC (Candida albicans [2]; C. albicans isolate 15, read-out: Fluconazole MIC (mg/L) alone): 2 mg/L
- MIC (Candida albicans [2]; C. albicans isolate 16, read-out: Fluconazole MIC (mg/L) alone): 64 mg/L
- MIC (Candida albicans [2]; C. albicans isolate 17, read-out: Fluconazole MIC (mg/L) alone): > 128 mg/L
- MIC (Candida albicans [2]; C. albicans isolate 18, read-out: Fluconazole MIC (mg/L) alone): > 128 mg/L
- MIC (Candida albicans [2]; C. albicans isolate 19, read-out: Fluconazole MIC (mg/L) alone): 0.5 mg/L
- MIC (Candida albicans [2]; C. albicans isolate 20, read-out: Fluconazole MIC (mg/L) alone): > 128 mg/L
- MIC (Candida albicans [2]; C. albicans isolate 21, read-out: Fluconazole MIC (mg/L) alone): 4 mg/L
- MIC (Candida albicans [2]; C. albicans isolate 22, read-out: Fluconazole MIC (mg/L) alone): 2 mg/L
- MIC (Candida albicans [2]; C. albicans isolate 23, read-out: Fluconazole MIC (mg/L) alone): 1 mg/L
- MIC (Candida albicans [2]; C. albicans isolate 24, read-out: Fluconazole MIC (mg/L) alone): 1 mg/L
- MIC (Candida albicans [2]; C. albicans isolate 25, read-out: Fluconazole MIC (mg/L) alone): > 128 mg/L
- Fluconazole MIC (mg/L) alone (Candida glabrata; C. glabrata isolate 1): >128 mg/L
- Fluconazole MIC (mg/L) alone (Candida glabrata; C. glabrata isolate 2): >128 mg/L
- Fluconazole MIC (mg/L) alone (Candida glabrata; C. glabrata isolate 3): >128 mg/L
- Fluconazole MIC (mg/L) alone (Candida glabrata; C. glabrata isolate 5): >128 mg/L
- Fluconazole MIC (mg/L) alone (Candida glabrata; C. glabrata isolate 6): >128 mg/L
- Fluconazole MIC (mg/L) alone (Candida glabrata; C. glabrata isolate 7): >128 mg/L
- Fluconazole MIC (mg/L) alone (Candida glabrata; C. glabrata isolate 8): >128 mg/L
- Fluconazole MIC (mg/L) alone (Candida glabrata; C. glabrata isolate 9): >128 mg/L
- Fluconazole MIC (mg/L) alone (Candida glabrata; C. glabrata isolate 10): >128 mg/L
- Fluconazole MIC (mg/L) alone (Candida glabrata; C. glabrata isolate 11): >128 mg/L
- MIC (Candida glabrata; Nakaseomyces glabratus, C. glabrata isolate 4, read-out: Fluconazole MIC (mg/L) alone): > 128 mg/L
- MIC (Candida tropicalis; C. tropicalis isolate 1, read-out: Fluconazole MIC (mg/L) alone): 16 mg/L
- MIC (Candida tropicalis; C. tropicalis isolate 2, read-out: Fluconazole MIC (mg/L) alone): > 64 mg/L
- MIC (Candida tropicalis; C. tropicalis isolate 3, read-out: Fluconazole MIC (mg/L) alone): 16 mg/L
- MIC (Candida tropicalis; C. tropicalis isolate 4, read-out: Fluconazole MIC (mg/L) alone): 16 mg/L
- Fluconazole MIC (mg/L) alone (Candida krusei; C. krusei isolate 1): 32 mg/L
- Fluconazole MIC (mg/L) alone (Candida krusei; C. krusei isolate 2): 32 mg/L
- Fluconazole MIC (mg/L) alone (Candida krusei; C. krusei isolate 4): 32 mg/L
- Fluconazole MIC (mg/L) alone (Candida krusei; C. krusei isolate 5): 32 mg/L
- MIC (Candida krusei; Pichia kudriavzevii, C. krusei isolate 3, read-out: Fluconazole MIC (mg/L) alone): 32 mg/L
- MIC (Candida parapsilosis; C. parapsilosis isolate 1): 8 mg/L
- MIC (Candida parapsilosis; C. parapsilosis isolate 2): 2 mg/L
- MIC (Candida parapsilosis; C. parapsilosis isolate 3): 8 mg/L
- MIC (Candida parapsilosis; C. parapsilosis isolate 4): 8 mg/L
- MIC (Candida parapsilosis; C. parapsilosis isolate 5): 8 mg/L

Source: patent US20120035125A1, “FULVIC ACID IN COMBINATION WITH FLUCONAZOLE OR AMPHOTERICIN B FOR THE TREATMENT OF FUNGAL INFECTIONS” (Natracine UK Limited, priority 2009, published 2012)
